Drawing on the NIST ThermoML archive (doi:10.1016/j.fluid.2012.05.003), this text covers Normal melting temperature for one compound.

The conditions of this data set: Crystal; DTA.

± gives the expanded uncertainty stated by the source.

`O=C(O)CNCP(=O)(O)O` [(phosphonomethyl)glycine]: the Normal melting temperature is 214.7 ± 0.5 °C.
